Activity calls are given as the source filed them. No cut-off for these calls is given here.
Assays:
Pseudomonas aeruginosa [1] = test: Antibiofilm activity against Pseudomonas aeruginosa PAO1 assessed as decrease in colony forming counts incubated for 24 hrs by crystal violet staining based analysis; type: functional, organism-based; conditions: dose 0.15625-2.5 µM
Pseudomonas aeruginosa [2] = test: Antibiofilm activity against Pseudomonas aeruginosa PAO1 assessed as reduction in pFe(III) content incubated for 24 hrs; type: functional
Pseudomonas aeruginosa [3] = test: Anti-motility activity against Pseudomonas aeruginosa PAO1 assessed as reduction in swarming motility at 10 uM incubated for 24 hrs relative to control; type: functional; parameters: scale not given: the % may be the effect or the level left
Pseudomonas aeruginosa [4] = test: Synergistic […] activity against Pseudomonas aeruginosa PAO1 assessed as fractional inhibitory concentration index measured for 20 hrs in presence of ciprofloxacin by microdilution checkboard assay; type: functional
Pseudomonas aeruginosa [5] = test: Antibiofilm activity against Pseudomonas aeruginosa PAO1 assessed as inhibition of biofilm formation at 2.5 incubated for 24 hrs by crystal violet staining based analysis; type: functional
[6] = Toxicity in BALB/c mouse assessed as lung damage by H and E staining based analysis; conditions: in vivo
[7] = Inhibition of quorum sensing system in Pseudomonas aeruginosa PAO1-gfp assessed as reduction in fluorescence intensity at 0.3125 to 10 uM measured upto 16 hrs by GFP reporter strain assay; conditions: dose 0.3125-10 µM
Pseudomonas aeruginosa [8] = test: Anti-motility activity against Pseudomonas aeruginosa PAO1 assessed as reduction in pili formation at 0.3125 to 10 uM incubated for 16 hrs by SEM analysis; type: functional, organism-based; conditions: dose 0.3125-10 µM
Pseudomonas aeruginosa [9] = test: Antibiofilm activity against Pseudomonas aeruginosa PA1129 assessed as inhibition of biofilm formation incubated for 24 hrs by crystal violet staining based analysis; type: functional, organism-based
Pseudomonas aeruginosa [10] = test: Antibiofilm activity against Pseudomonas aeruginosa PAO1 assessed as reduction in iron content at 10 uM incubated for 24 hrs by cell total iron colorimetric assay relative to control; type: functional; parameters: scale not given: the % may be the effect or the level left
Pseudomonas aeruginosa [11] = test: Antibacterial activity against Pseudomonas aeruginosa PAO1 assessed as inhibition of bacterial growth incubated for 24 hrs by serial dilution method; type: functional
[12] = Toxicity in BALB/c mouse wound infection model assessed as heart damage measured for 9 days by H and E staining based analysis; type: tissue-based; conditions: in vivo, 216 h, time 9 day
RAW264.7 = test: Cytotoxicity against mouse RAW264.7 cells assessed as reduction in cell viability at < 100 uM incubated for 24 hrs by MTT assay; type: toxicity, cell-based; conditions: raw264.7, 24 h
Pseudomonas aeruginosa [13] = test: Antibiofilm activity against Pseudomonas aeruginosa PA108 assessed as inhibition of biofilm formation incubated for 24 hrs by crystal violet staining based analysis; type: functional, organism-based
Pseudomonas aeruginosa [14] = test: Antibacterial activity against Pseudomonas aeruginosa PAO1 infected in BALB/c mouse wound infection model assessed as reduction in wound area at 2.5 uM administered to wound once a day for 3 days and measured after 9 days in dropwise manner in presence of ciprofloxacin; type: functional; parameters: scale not given: the % may be the effect or the level left; conditions: time 12 day
[15] = Toxicity in BALB/c mouse assessed as heart damage by H and E staining based analysis; type: tissue-based; conditions: in vivo

## COc1ccc2nc(NCC(=O)NCCCCC(=O)NO)sc2c1
Pseudomonas aeruginosa [1]
  Activity: Dose-dependent-effect
Pseudomonas aeruginosa [2]
  Activity: 19.61
Pseudomonas aeruginosa [3]
  Activity: 84%
Pseudomonas aeruginosa [4]
  fractional inhibitory concentration index (FICI): 0.25
Pseudomonas aeruginosa [5]
  inhibition (INH): 65%
[6]
  Activity: Non-toxic
[7]
  inhibition: inactive
Pseudomonas aeruginosa [8]
  Activity: Active
Pseudomonas aeruginosa [9]
  Activity: Active
Pseudomonas aeruginosa [10]
  Activity: 57%
Pseudomonas aeruginosa [11]
  MIC: > 256 µM
[12]
  Activity: Non-toxic
RAW264.7
  Activity: Non-toxic
Pseudomonas aeruginosa [13]
  Activity: Active
Pseudomonas aeruginosa [14]
  Activity: 38%
[15]
  Activity: Non-toxic

— ChEMBL document CHEMBL6103650, “Hybrid Molecules of Benzothiazole and Hydroxamic Acid as Dual-Acting Biofilm Inhibitors with Antibacterial Synergistic Effect against Pseudomonas aeruginosa Infections” (J Med Chem, 2025)
